One test relates to Diabetic Rats. Description: Effect on serum glucose, body weight and HbA1c in STZ/nicotinamide-induced type 2 diabetic rats, 4 weeks treatment. The format is in vivo, rat. The conditions noted are these: diabetic rats (STZ 65 mg/kg + NIC 150 mg/kg i.p.), 30 mg/kg/day; for Glucose: serum glucose. How it is done:
(§1) Effect of Nateglinide alone and Formula I (1-2) on Serum Glucose, Body Weights and HbAlc in Non-Diabetic and Diabetic Rats:
Type 2 Diabetes was induced in overnight fasted rats by a single intraperitoneal injection of 65 mg/kg Streptozotocin (STZ), 15 min after the i.p administration of 150 mg/kg of Nicotinamide (NIC). After 7 days following STZ and NIC administration, blood was collected from tail vein and serum samples were analyzed for blood glucose. Animals showing fasting blood glucose higher than 300 mg/dl were considered as diabetic and were used for the study.
(§2) Methods: Animals were divided in to following groups, each group containing 6 animals and the treatment period for whole study was 4 weeks.
Group 4: Diabetic control, single injection of STZ (65 mg/kg, i.p) and NIC (150 mg/kg, i.p, DB-CON).
Group 5: Diabetic rats (DB) treated with NAT (30 mg/kg/day, DB-NAT).
Group 6: Diabetic rats treated with Formula I (1-2) (30 mg/kg/day, p.o)
(§3) Effect of Nateglinide (30 mg/kg/day, p.o) and Formula I (30 mg/kg/day, p.o) on Changes in Body Weight, Serum Glucose and HbAlc Level in Nondiabetic and Diabetic Rats.

Another test concerns Non-Diabetic Rats. Description: Effect on serum glucose, body weight and HbA1c in nondiabetic rats, 4 weeks treatment. The format is in vivo, rat. The note with it: 30 mg/kg/day p.o.; for Glucose: serum glucose. The protocol:
as §1, §2
Group 1: Nondiabetic (ND) control, received CMC as vehicle (1 ml/kg/day, p.o, NDCON).
Group 2: Nondiabetic group treated with Nateglinide (NAT) (30 mg/kg/day, p.o, ND-NAT).
Group 3: Nondiabetic group treated with Formula I (1-2) (30 mg/kg/day, p.o)
as §3

`CC(C)[C@H]1CCC[C@H](C(=O)N[C@H](Cc2ccccc2)OC(=O)OC(=O)CCCC[C@]2(C)CCSS2)C1` [FORMULA I]: in the test with Diabetic Rats, the “(%, HbA1c)” value is recorded as 4.01 +/− 0.72% and the “Glucose” value is 99.1 ± 12.1 mg/dL. In the test on Non-Diabetic Rats, the “(%, HbA1c)” value is 4.21 +/− 0.67%; the “Body weight (gm)” value was 265.1 +/− 9.3 gm; the “Glucose” value came to 77.87 ± 9.67 mg/dL.

For `CC(C)[C@H]1CC[C@H](C(=O)N[C@H](Cc2ccccc2)C(=O)O)CC1` [NAT, Nateglinide], in the test with Diabetic Rats, the “(%, HbA1c)” value is listed as 6.78 +/− 0.98%; the “Body weight (gm)” value is given as 219.8 +/− 50.28 gm; the “Glucose” value is 170.7 ± 13.21 mg/dL. In addition, in the test with Non-Diabetic Rats, the “(%, HbA1c)” value is listed as 5.04 +/− 0.30%; the “Body weight (gm)” value is on record as 224.0 +/− 7.23 gm; the “Glucose” value amounted to 70.21 ± 5.6 mg/dL.

The values are drawn from patent publication US20160122313A1, “COMPOSITIONS AND METHODS FOR THE TREATMENT OF DIABETES” (priority 2014, published 2016).
